# Data reported in US6699989B1, “Antiviral and antimicrobial guanidine or biguanidine derivatives” (priority 2000, dated 2004).
# How the values were obtained:
# Test in all cases: Microdilution broth MIC assay
# Format in all cases: cell-based
# [1] = test system: Klebsiella pneumoniae ATCC 4352; settings: ATCC4352, Kp, Mueller Hinton broth, about 17 hr
# Procedure: (§1) Test organisms. The test organisms are listed in Table 5 along with their source. Prior to assay, overnight bacterial slant cultures were used to inoculate Mueller Hinton broth followed by incubation for 5-7 hr. Each culture was then standardized turbidimetrically to a viable count of about 10^6 colony forming units/ml and used to inoculate the mirotiter assay plates. The viable count after addition to the plates was about 5×10^5 CFU/ml.
# (§2) Experimental design. The MIC of the test compounds for the bacterial strains was determined with a microdilution broth assay in 96 well microtiter plates. The test compounds were dissolved in DMSO and then diluted 10-fold in assay medium (Mueller Hinton broth) to obtain final concentrations of 0.128, 1.28, 12.8, and 128 μg/ml. A viability control containing DMSO, diluted in the same manner as the test compounds, was used to confirm that the DMSO was not inhibitory by itself. Trimethoprim (TMP) was used as a positive drug control. The assay plates were incubated at 37° C. for about 17 hr and each assay well observed visually for growth. The MIC was determined at the lowest concentration of drug which inhibited growth. [drawing 32]
# [2] = test system: Escherichia coli ATCC 11229; settings: ATCC11229, Ec, Mueller Hinton broth, about 17 hr
# Procedure: as §1, §2
# [3] = test system: Streptococcus pneumoniae ATCC 6303; settings: ATCC6303, Sp, Mueller Hinton broth, about 17 hr
# Procedure: as §1, §2
# [4] = test system: Staphylococcus epidermidis ATCC 35984; settings: ATCC35984, Se, Mueller Hinton broth, about 17 hr
# Procedure: as §1, §2
# [5] = test system: Proteus mirabilis ATCC 9921; settings: ATCC9921, Pm, Mueller Hinton broth, about 17 hr
# Procedure: as §1, §2
# [6] = test system: Staphylococcus aureus ATCC 6538; settings: ATCC6538, Sa, Mueller Hinton broth, about 17 hr
# Procedure: as §1, §2
# [7] = test system: Pseudomonas aeruginosa ATCC 15442; settings: ATCC15442, Pa, Mueller Hinton broth, about 17 hr
# Procedure: as §1, §2
structure (smiles),measurement,setting,value
"COc1cc(Cc2cnc(N)nc2N)cc(OC)c1OC [TMP, Trimethoprim, reference compound]",MIC,[1],0.064 to 0.64 µg/mL
same,MIC,[2],0.064 to 0.64 µg/mL
same,MIC,[3],0.64 to 6.4 µg/mL
same,MIC,[4],> 64 µg/mL
same,MIC,[5],0.64 to 6.4 µg/mL
same,MIC,[6],0.064 to 0.64 µg/mL
same,MIC,[7],> 64 µg/mL
